Laboratory results taken from patent US20250154145A1, “OXER1 ANTAGONISTS AND USES THEREOF” (Fairhaven Pharmaceuticals Ins., priority 2021, published 2025).

Key:
Human OXER1 = biological target: T1, Human OXER1 (Homo sapiens, UniProt Q8TDS5); assay: BRET early endosome trafficking assay (OXER1-Rluc8 / rGFP-FYVE in HEK293 cells); type: cell-based; conditions: HEK293 cells transfected with OXER1-Rluc8 and rGFP-FYVE, 5-oxo-ETE agonist
T1 construct: host or cells: HEK293 cells, transient transfection
Source text: Background—The following assay can be used for determination of OXER1 activation in living HEK293 cells. Signalling functions of GPCRs are tightly regulated by endocytosis, the targeting of receptors to endosomes and their sorting to lysosomes or recycling to the plasma membrane. The early endosomes (EEs) trafficking assay (Namkung et al., Monitoring G protein-coupled receptor and β-arrestin trafficking in live cells using enhanced bystander BRET, Nat Commun 2016, 7: 12178) uses Rluc8-tagged OXER1 and Renilla GFP (rGFP) attached to the FYVE domain from human endofin/zinc finger FYVE domain-containing protein 16, which binds phosphatidylinositol 3-phosphate in EEs. Agonist stimulation of OXER1-Rluc8 leads to trafficking of the receptor to EEs, and ensuing increase of the donor concentration relative to the rGFP-FYVE acceptor anchored in the same cellular compartment, and thus results in an increase in BRET signal.
Plasmids—Human OXER1 VersaClone cDNA was obtained from R&D Systems. Rluc8 (A55T, C124A, S130A, K136R, A143M, M185V, M253L, and S287L variant of theRenilla renformis luciferase) gBlocks gene fragment (Integrated DNA Technologies, IA) was inserted with linker in frame at the C-terminus of OXER1. The FYVE domain from human endofin (residues Q739 to K806) attached in frame at the C terminus of a humanized Renilla GFP (rGFP), were synthesized as gBlocks gene fragments.
Bioluminescence Resonance Energy Transfer (BRET) Measurement—HEK293 cells were transfected with OXER1-Rluc8 and rGFP-FYVE. The following day, transiently transfected cells were seeded in 96-well white clear bottom microplates coated with poly-D-lysine and left in culture for 24 hours. Cells were washed once with Tyrode's buffer (140 mmol/L NaCl, 1 mmol/L CaCl2, 2.7 mmol/L KCl, 0.49 mmol/L MgCl2, 0.37 mmol/L NaH2PO4, 5.6 mmol/L glucose, 12 mmol/L NaHCO3, and 25 mmol/L HEPES, pH 7.5) before performing assays in Tyrode's buffer. Test compounds were incubated with cells for 15 minutes at 37° C. before addition of […] of the OXER1 agonist 5-oxo-6E,8Z,1IZ,14Z-eicosatetraenoic acid (5-oxo-ETE) for 45 minutes at 37° C. The Rluc8 substrate coelenterazine 400A (Prolume, Lakeside, AZ) was added at a final concentration of […] and BRET readings were collected using a Spark or Infinite M1000 microplate reader (Tecan, Morrisville, NC). BRET^2 readings between Rluc8 and rGFP were collected by sequential integration of the signals detected in the 370 to 450 nm (Rluc8) and 510 to 540 nm (rGFP) windows. The BRET signal was calculated as the ratio of light emitted by acceptor (rGFP) over the light emitted by donor (Rluc8). Ligand-promoted net BRET values were calculated by subtracting vehicle-induced net BRET from ligand-induced net BRET.

neutrophils = assay: Neutrophil calcium flux assay (5-OXO-ETE-stimulated, Indo-1 fluorescence); type: cell-based; conditions: 5-OXO-ETE-stimulated calcium flux
In short: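 Indo-1-loaded neutrophils (5×10^6 cells/ml, 30 min at 37 °C) in HBSS with Ca/Mg and HEPES, pre-incubated 5 min with antagonist or buffer. Stimulated with 5-OXO-ETE added at 200 nM (4× stock); fluorescence (ex 331/em 410 nm) read every 5 s for 30 cycles, expressed as net fluorescence.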

T1 sequence (Q8TDS5 whole entry): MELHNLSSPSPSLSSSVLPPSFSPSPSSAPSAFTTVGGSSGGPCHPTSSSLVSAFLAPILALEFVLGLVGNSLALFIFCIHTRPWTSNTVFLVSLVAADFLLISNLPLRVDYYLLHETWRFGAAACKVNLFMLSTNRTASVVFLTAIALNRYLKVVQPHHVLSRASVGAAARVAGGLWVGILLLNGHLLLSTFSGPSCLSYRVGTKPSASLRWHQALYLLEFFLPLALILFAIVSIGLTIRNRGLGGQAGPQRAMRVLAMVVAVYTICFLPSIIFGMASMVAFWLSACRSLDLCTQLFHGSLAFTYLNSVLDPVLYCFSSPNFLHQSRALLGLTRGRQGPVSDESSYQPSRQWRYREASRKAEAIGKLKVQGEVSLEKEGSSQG

Row | SMILES | IC50 (Human OXER1) [nM] | IC50 (neutrophils; Neutrophil) [nM] | IC50 (neutrophils) [nM]
1 | [2H]C([2H])([2H])n1c(CCCCCCc2cccc(Cl)c2)c(C(=O)C[C@H](C)CC(=O)O)c2cc(Cl)ccc21 [Compound I-40] | < 100 | < 100 | 
2 | C[C@H](CC(=O)O)CC(=O)c1c(CCCCCC(O)c2cccc(Cl)c2)n(C)c2ncc(Cl)cc12 (stereo partly drawn) [Compound I-85] | < 100 | < 100 | 
3 | CC(C)C#CCCCCCCc1c(C(=O)C[C@H](C)CC(=O)O)c2cc(Cl)ccc2n1C [Compound I-68] | < 100 | < 100 | 
4 | C[C@H](CC(=O)O)CC(=O)c1c(CCCCOCc2cccc(Cl)c2)n(C)c2ccc(Cl)cc12 [Compound I-60] | 100 to 300 | < 100 | 
5 | C[C@H](CC(=O)O)CC(=O)c1c([C@@H](O)CCCCCc2cccc(Cl)c2)n(C)c2ccc(Cl)cc12 [Compound I-3] | < 100 | > 300 | 
6 | CC(CC(=O)O)CC(=O)c1c(CCCCOCc2cccc(Cl)c2)n(C)c2ccc(C(F)(F)F)cc12 (stereo not drawn) [Compound I-185] | 100 to 300 | < 100 | 
7 | C[C@H](CC(=O)O)CC(=O)n1c(CCCCCCc2cccc(Cl)c2)cc2ccc(Cl)cc21 [Compound I-39] | 100 to 300 | > 300 | 
8 | C[C@H](CC(=O)O)CC(=O)c1c(CCCCCOc2cccc(Cl)c2)n(C)c2ccc(Cl)cc12 [Compound I-59] | 100 to 300 | < 100 | 
9 | C[C@H](CC(=O)O)CC(=O)c1c(CCCCCCc2ccc(O)cc2)n(C)c2ccc(Cl)cc12 [Compound I-10] | < 100 | < 100 | 
10 | C[C@H](CC(=O)NO)CC(=O)c1c(CCCCCCc2cccc(Cl)c2)n(C)c2ccc(Cl)cc12 [Compound I-17] | > 300 | > 300 | 
11 | C[C@H](CC(=O)O)CC(=O)c1c(CCCCCCc2cccc(Cl)c2)oc2ccc(Cl)cc12 [Compound I-21] | 100 to 300 | > 300 | 
12 | C[C@H](CC(=O)O)CC(=O)c1c(CCCCOCc2cccc(Cl)c2)n(C)c2ncc(C(F)(F)F)cc12 [Compound I-182] | 100 to 300 | < 100 | 
13 | C[C@@H](CC(=O)c1c(CCCCCCc2cccc(Cl)c2)n(C)c2ccc(Cl)cc12)Cc1nnn[nH]1 [Compound I-13] | < 100 | < 100 | 
14 | C[C@H](CC(=O)O)CC(=O)c1c(CCCCCC(O)c2cccc(Cl)c2)n(C)c2ccc(Cl)cc12 (stereo partly drawn) [Compound I-44] | < 100 | < 100 | 
15 | C[C@@H](CC(=O)O)CC(=O)c1c(CCCCCCc2cccc(Cl)c2)oc2ccc(Cl)cc12 [Compound I-22] | 100 to 300 | > 300 | 
16 | CONC(=O)C[C@H](C)CC(=O)c1c(CCCCCCc2cccc(Cl)c2)n(C)c2ccc(Cl)cc12 [Compound I-20] | > 300 | 100 to 300 | 
17 | C[C@H](CC(=O)O)CC(=O)c1c(CCCCOCc2ccccc2)n(C)c2ncc(C#N)cc12 [Compound I-105] | 100 to 300 | < 100 | 
18 | CC(CC(=O)O)CC(=O)c1c(CCCCOCc2ccccc2)n(C)c2ncc(C#N)cc12 (stereo not drawn) [Compound I-104] | 100 to 300 | < 100 | 
19 | COC(=O)NCCCCCc1c(C(=O)CC(C)CC(=O)O)c2cc(Cl)ccc2n1C (stereo not drawn) [Compound I-134] |  | > 300 | 
20 | CC(CC(=O)O)CC(=O)c1c(CCCCCC(O)c2cccc(C(=O)N(C)C)c2)n(C)c2ncc(C#N)cc12 (single isomer, unassigned) [Compound I-315] |  |  | > 300
21 | Cn1nc(-c2cccc(Cl)c2)c(C(=O)N2CC[C@H](C(=O)O)C2)c1CCCCOCc1cccc(Cl)c1 [Compound I-191] |  | > 300 | 
22 | CC(CC(=O)O)CC(=O)c1c(CCCCCC(O)c2ccc(Cl)cc2)n(C)c2ncc(C#N)cc12 (stereo not drawn) [Compound I-310] |  | 100 to 300 | 
23 | CC(CC(=O)O)CC(=O)c1c(CCCCCOCc2cccc(Cl)c2)[nH]c2ccc(C#N)cc12 (stereo not drawn) [Compound I-443] |  | 100 to 300 | 
24 | C[C@H](CC(=O)O)CC(=O)c1c(CCOCCNc2cccnc2)n(C)c2ccc(Cl)cc12 [Compound I-137] |  | > 300 | 

Row | SMILES | IC50 (Human OXER1) [nM] | IC50 (neutrophils; Neutrophil) [nM] | IC50 (neutrophils) [nM]
25 | Cn1c(CCCCCCc2cccc(Cl)c2)c(C(=O)N2CC[C@H](c3nnn[nH]3)C2)c2cc(Cl)cnc21 [Compound I-149] |  | < 100 | 
26 | Cn1c(CCCCCCC#CC2CC(F)(F)C2)c(C(=O)N2CC[C@H](c3nnn[nH]3)C2)c2cc(C#N)cnc21 [Compound I-354] |  | < 100 | 
27 | C[C@H](CC(=O)O)CC(=O)c1c(CCCCOCC2(C(F)(F)F)CC2)n(C)c2ccc(Cl)cc12 [Compound I-74] |  | > 300 | 
28 | Cn1c(CCCCOCc2cccc(Cl)c2)c(C(=O)N2CC[C@H](C(=O)O)C2)c2cc(C(F)(F)F)ccc21 [Compound I-187] |  | 100 to 300 | 
29 | C[C@H](CC(=O)O)CC(=O)c1c(CCCCCCC#CC(C)(C)C)n(C)c2ccc(Cl)cc12 [Compound I-112] |  | < 100 | 
30 | COc1cc(COCCCCc2c(C(=O)CC(C)CC(=O)O)c3cc(C#N)cnc3n2C)ccc1F (stereo not drawn) [Compound I-391] |  | < 100 | 
31 | C[C@H](CC(=O)O)CC(=O)c1c(CCCCCOCC#CC2CC(F)(F)C2)n(C)c2ccc(Cl)cc12 [Compound I-337] |  | < 100 | 
32 | Cn1c(CCCCCCc2cccc(Cl)c2)c(C(=O)N2CC[C@H](C(=O)O)C2)c2cc(C#N)cnc21 [Compound I-338] |  | < 100 | 
33 | C[C@H](CC(=O)O)CC(=O)c1c(CCCCCCC#CC2CC(F)(F)C2)n(C)c2ccc(Cl)cc12 [Compound I-319] |  | < 100 | 
34 | Cn1c(CCCCCCCC#CC2CC(F)(F)C2)c(C(=O)N2CC[C@H](c3nnn[nH]3)C2)c2cc(C#N)cnc21 [Compound I-358] |  | > 300 | 
35 | Cn1c(CCCCCCc2cccc(Cl)c2)c(C(=O)N2CC(C(=O)O)C2)c2cc(Cl)cnc21 [Compound I-153] |  | > 300 | 
36 | CC(CC(=O)O)CC(=O)c1c(COCCOCc2cccc(Cl)c2)n(C)c2ccc(Cl)cc12 (stereo not drawn) [Compound I-65] |  | 100 to 300 | 
37 | CC(CC(=O)O)CC(=O)c1c(CCCCOCc2cccc(C#N)c2)n(C)c2cccnc12 (stereo not drawn) [Compound I-398] |  | > 300 | 
38 | Cn1nc(CCCCOCc2cccc(Cl)c2)c(C(=O)N2CC[C@H](C(=O)O)C2)c1-c1cccc(Cl)c1 [Compound I-192] |  | > 300 | 
39 | CC(CC(=O)O)CC(=O)c1c(CCCCOCc2cncc(C#N)c2)n(C)c2ncc(Cl)cc12 (stereo not drawn) [Compound I-445] |  | > 300 | 
40 | CC(CC(=O)O)CC(=O)c1c(CCCCC#Cc2ccc(F)nc2)n(C)c2ncc(Cl)cc12 (stereo not drawn) [Compound I-227] |  | > 300 | 
41 | C[C@@H]1[C@@H](C(=O)O)CCN1C(=O)c1c(CCCCCCC#CC2CC(F)(F)C2)n(C)c2ncc(C#N)cc12 [Compound I-346] |  | < 100 | 
42 | Cn1ccc(C(=O)N2CC[C@H](C(=O)O)C2)c1CCCCOCc1cccc(Cl)c1 [Compound I-162] |  | > 300 | 
43 | Cn1c(CCCCOCc2cccc(Cl)c2)c(C(=O)N2CC[C@H](C(=O)O)C2)c2cnccc21 [Compound I-442] |  | > 300 | 
44 | C[C@H](CC(=O)O)CC(=O)c1c(CCCCC#Cc2ccccc2)n(C)c2ccc(Cl)cc12 [Compound I-117] |  | < 100 | 
45 | C[C@H](CC(=O)O)CC(=O)c1c(CCCCCNC(=O)C2CC2)n(C)c2ccc(Cl)cc12 [Compound I-127] |  | > 300 | 
46 | Cn1c(CCCCCC(O)c2cccc(Cl)c2)c(C(=O)N2CC[C@H](c3nnn[nH]3)C2)c2cc(C#N)cnc21 (stereo partly drawn) [Compound I-225] |  | 100 to 300 | 
47 | CC(CC(=O)NS(C)(=O)=O)CC(=O)c1c(CCCCOCc2ccccc2)n(C)c2ncc(C#N)cc12 (stereo not drawn) [Compound I-362] |  | > 300 | 
48 | CC(CC(=O)O)CC(=O)c1c(CCCCCC(O)c2cccc(C#N)c2)n(C)c2ncc(Cl)cc12 (single isomer, unassigned) [Compound I-308] |  |  | < 100
